Reference: the supplement of paper PMC10307832

Tests used:
Test in all cases: relative viability (nuclei count vs DMSO), 5 days (fraction); higher = more cells survive
[1] = compound: COC1=CC=C(C=C1)COC2=C(C=C(C=C2)CC3=CN=C(N=C3N)N)OC [GW-2580] + C[C@@H](Oc1cc(-c2cnn(C3CCNCC3)c2)cnc1N)c1c(Cl)ccc(F)c1Cl [Crizotinib] (partner 1 µM)
Procedure, shortened: (§1)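 The day after seeding in 1536-well plates, lung cancer cell lines were treated by pin tool with a single drug, or with a fixed anchor-drug dose together with five library-drug doses (not always all listed) in √10 steps. After 5 days, a combined fix-and-stain solution (final 0.05% Triton X-100, 1% formaldehyde, 1 ug/ml Hoechst) was added. Nuclei counted on 4× images gave relative viability as treated counts over vehicle counts, reported as the median of duplicate plates.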

[2] = compound: COC1=CC=C(C=C1)COC2=C(C=C(C=C2)CC3=CN=C(N=C3N)N)OC [GW-2580] + C[C@]1(O)C[C@@H](c2nc(-c3ccc4ccc(-c5ccccc5)nc4c3)c3c(N)nccn32)C1 [Linsitinib] (partner 1 µM)
Procedure, shortened: as §1

[3] = compound: Cc1cnc(Nc2ccc(OCCN3CCCC3)cc2)nc1Nc1cccc(S(=O)(=O)NC(C)(C)C)c1 [Fedratinib] + CC(=O)c1c(C)c2cnc(Nc3ccc(N4CCNCC4)cn3)nc2n(C2CCCC2)c1=O [Palbociclib] (partner 0.5 µM)
Procedure, shortened: as §1

[4] = compound: Cc1cnc(Nc2ccc(OCCN3CCCC3)cc2)nc1Nc1cccc(S(=O)(=O)NC(C)(C)C)c1 [Fedratinib] + CC1(C)CCC(c2ccc(Cl)cc2)=C(CN2CCN(c3ccc(C(=O)NS(=O)(=O)c4ccc(N[C@H](CCN5CCOCC5)CSc5ccccc5)c(S(=O)(=O)C(F)(F)F)c4)cc3)CC2)C1 [Navitoclax] (partner 0.5 µM)
Procedure, shortened: as §1

[5] = compound: Cc1cnc(Nc2ccc(OCCN3CCCC3)cc2)nc1Nc1cccc(S(=O)(=O)NC(C)(C)C)c1 [Fedratinib] + Nc1ncn([C@H]2C[C@H](O)[C@@H](CO)O2)c(=O)n1 [Decitabine] (partner 2 µM)
Procedure, shortened: as §1

Cell Line | relative viability ([1]; first compound 0.08 µM) | relative viability ([1]; first compound 0.8 µM) | relative viability ([1]; first compound 2.53 µM) | relative viability ([1]; first compound 8 µM) | relative viability ([2]; first compound 0.08 µM) | relative viability ([2]; first compound 0.8 µM) | relative viability ([2]; first compound 2.53 µM) | relative viability ([2]; first compound 8 µM) | relative viability ([3]; first compound 0.1 µM) | relative viability ([3]; first compound 0.3162 µM) | relative viability ([3]; first compound 1 µM) | relative viability ([4]; first compound 0.1 µM) | relative viability ([4]; first compound 0.3162 µM) | relative viability ([4]; first compound 1 µM) | relative viability ([5]; first compound 0.1 µM) | relative viability ([5]; first compound 0.3162 µM) | relative viability ([5]; first compound 1 µM)
HCC-827 | 0.874 | 0.933 | 0.863 | 0.868 | 0.975 | 1.03 | 1.01 | 0.961 | 0.454 | 0.485 | 0.475 | 0.949 | 1.01 | 1.06 | 0.292 | 0.336 | 0.318
HOP-62 | 0.986 | 1.12 | 0.926 | 0.98 | 1.05 | 0.953 | 0.877 | 0.982 | 0.437 | 0.426 | 0.393 | 1.03 | 1.01 | 1.07 | 0.224 | 0.172 | 0.202
IA-LM | 0.962 | 0.732 | 1.02 | 0.836 | 0.693 | 1.29 | 0.55 | 0.319 | – | – | – | 0.884 | 0.721 | 0.972 | – | – | –
LC-2-ad | 0.484 | 0.527 | 0.462 | 0.459 | 0.817 | 0.874 | 0.84 | 0.786 | 0.535 | 0.486 | 0.476 | 0.436 | 0.45 | 0.3 | 0.902 | 0.776 | 0.741
LCLC-97TM1 | 0.554 | – | 0.303 | 0.284 | 0.207 | – | 0.164 | 0.177 | 0.215 | 0.235 | 0.183 | 0.275 | 0.394 | 0.412 | 0.273 | 0.255 | 0.214
LCLC-103H | 1.02 | 1.1 | 1.08 | 1.02 | 1.07 | 1.45 | 1.08 | 1.09 | 0.479 | 0.502 | 0.477 | – | – | – | 0.725 | 0.734 | 0.703
LK-2 | 0.22 | 0.247 | 0.218 | 0.208 | 0.558 | 0.573 | 0.23 | 0.534 | 0.55 | 0.581 | 0.608 | 0.831 | 1.34 | 0.777 | 0.275 | 0.269 | 0.352
LOU-NH91 | 0.731 | 0.75 | 0.753 | 0.728 | 0.956 | 0.972 | 0.877 | 1.02 | 0.573 | 0.544 | 0.543 | 0.588 | 0.786 | 0.575 | 0.756 | 0.798 | 0.785
NCI-H358 | 0.654 | 0.543 | 0.554 | 0.502 | 0.888 | 0.849 | 0.707 | 0.684 | 0.131 | 0.0975 | 0.107 | – | – | – | 0.156 | 0.21 | 0.101
NCI-H522 | – | – | – | – | – | – | – | – | 0.847 | 0.893 | 1.03 | – | – | – | 0.634 | 0.698 | 0.668
NCI-H596 | 0.966 | 0.985 | 0.912 | 1.15 | 1.22 | 1.08 | 1.07 | 1 | – | – | – | 0.853 | 0.992 | 0.976 | 0.937 | 1.01 | 0.975
NCI-H650 | 0.834 | 0.663 | 0.668 | 0.594 | 0.94 | 1.02 | 0.547 | 1.17 | 0.285 | 0.345 | 0.324 | – | – | – | 0.349 | 0.372 | 0.34
NCI-H661 | 0.983 | 1.22 | 0.917 | 0.843 | 0.493 | 0.615 | 0.419 | 0.439 | 0.397 | 0.401 | 0.359 | – | – | – | 0.566 | 0.54 | 0.423
NCI-H1299 | 0.974 | 0.984 | 0.972 | 0.892 | 1.09 | 0.969 | 0.952 | 0.907 | – | – | – | 1.04 | 1.06 | 1.01 | – | – | –
NCI-H1395 | – | – | – | – | 1.07 | 1.08 | 0.97 | 0.931 | 0.599 | 0.561 | 0.493 | 1.3 | 1.13 | 0.962 | 0.628 | 0.738 | 0.622
NCI-H1563 | 0.836 | 0.936 | 0.875 | 0.77 | 1.19 | 1.27 | 1.1 | 1.08 | – | – | – | – | – | – | – | – | –
NCI-H1648 | – | – | – | – | – | – | – | – | 0.257 | 0.262 | 0.25 | – | – | – | 0.473 | 0.51 | 0.443
NCI-H1650 | 1.06 | 1.29 | 1.36 | 0.919 | – | – | – | – | 0.299 | 0.408 | 0.288 | 1.25 | 1.12 | 1.15 | 0.454 | 0.349 | 0.399
NCI-H1703 | 0.752 | 0.631 | 0.714 | 0.647 | 0.879 | 1.1 | 0.712 | 0.716 | – | – | – | 0.482 | 0.955 | 0.498 | – | – | –
NCI-H1793 | – | – | – | – | 0.93 | 0.934 | 0.814 | 0.824 | 0.316 | 0.319 | 0.313 | 0.295 | 0.456 | 0.476 | 0.501 | 0.526 | 0.406
NCI-H2170 | 1.23 | 1.33 | 1.22 | 1.36 | – | – | – | – | 0.379 | 0.363 | 0.344 | 0.626 | 0.653 | 0.429 | 0.478 | 0.466 | 0.443
NCI-H2228 | 0.404 | 0.528 | 0.408 | 0.5 | 0.88 | 0.664 | 0.79 | 0.633 | 0.648 | 0.53 | 0.523 | 0.631 | 0.838 | 0.599 | – | – | –
NCI-H2342 | – | – | – | – | – | – | – | – | 0.531 | 0.606 | 0.593 | – | – | – | 0.753 | 0.759 | 0.745
SW 900 | – | – | – | – | – | – | – | – | 0.547 | 0.514 | 0.47 | – | – | – | 0.399 | 0.425 | 0.516
